≈ marks a conversion by molar mass, not a printed value. Like-named read-outs stand apart in the source and are kept apart here.
Experiments:
[1] = tested on: Str. pneumoniae A9585; test: Antibiotic activity in nutrient broth (MIC); assay type: cell-based; conditions: Streptococcus pneumoniae, A9585, inoculum 10^-3 dilution of overnight broth culture; 45% AAB + 5% serum + 50% broth; derivatives adjusted for BL-S640 content
Text: (§1) Antibiotic Activity In Nutrient Broth
(§2) * 45% AAB+ 5% serum+ 50% broth listed above.
(§3) ** Dilution of overnight broth culture.
(§4) Antibiotic Spectrum Nutrient Broth
(§5) * 45% AAB + 5% serum + 50% broth
(§6) Antibiotic Spectrum in Nutrient Broth
(§7) *45% AAB + 5% serum + 50% broth listed above.

[2] = tested on: Str. pyogenes A9604; test: Antibiotic activity in nutrient broth (MIC); assay type: cell-based; conditions: Streptococcus pyogenes, A9604, inoculum 10^-3; 45% AAB + 5% serum + 50% broth; derivatives adjusted for BL-S640 content; read-out: MIC
Text: as §1, §2, §3, §4, §5, §6, §7

[3] = tested on: E. coli A9675; test: Antibiotic activity in nutrient broth (MIC); assay type: cell-based; conditions: Escherichia coli, A9675, inoculum 10^-4; derivatives adjusted for BL-S640 content; read-out: MIC
Text: as §1, §3, §4, §6

[4] = tested on: E. coli Juhl A15119; test: Antibiotic activity in nutrient broth (MIC); assay type: cell-based; conditions: Escherichia coli, JUHLA15119, inoculum 10^-4; derivatives adjusted for BL-S640 content; read-out: MIC
Text: as §1, §3, §4, §6

[5] = tested on: Ent. cloacae A9656; test: Antibiotic activity in nutrient broth (MIC); assay type: cell-based; conditions: Enterobacter cloacae, A9656, inoculum 10^-4; derivatives adjusted for BL-S640 content
Text: as §1, §3, §4, §6

[6] = tested on: Ent. cloacae A9657; test: Antibiotic activity in nutrient broth (MIC); assay type: cell-based; conditions: Enterobacter cloacae, A9657, inoculum 10^-4; derivatives adjusted for BL-S640 content; read-out: MIC
Text: as §1, §3, §4, §6

[7] = tested on: Ent. cloacae A9659; test: Antibiotic activity in nutrient broth (MIC); assay type: cell-based; conditions: Enterobacter cloacae, A9659, inoculum 10^-4; derivatives adjusted for BL-S640 content; read-out: MIC
Text: as §1, §3, §4, §6

[8] = tested on: K. pneumoniae A15130; test: Antibiotic activity in nutrient broth (MIC); assay type: cell-based; conditions: Klebsiella pneumoniae, A15130, inoculum 10^-4; derivatives adjusted for BL-S640 content; read-out: MIC
Text: as §1, §3, §4, §6

[9] = tested on: K. pneumoniae A9977; test: Antibiotic activity in nutrient broth (MIC); assay type: cell-based; conditions: Klebsiella pneumoniae, inoculum 10^-4, derivatives adjusted for BL-S640 content, read-out: MIC
Text: as §1, §3, §4, §6

[10] = tested on: Pr. mirabilis A9900; test: Antibiotic activity in nutrient broth (MIC); assay type: cell-based; conditions: Proteus mirabilis, inoculum 10^-4, derivatives adjusted for BL-S640 content
Text: as §1, §3, §4, §6

[11] = tested on: Pr. morganii A15153; test: Antibiotic activity in nutrient broth (MIC); assay type: cell-based; conditions: Morganella morganii, A15153, inoculum 10^-4; derivatives adjusted for BL-S640 content; read-out: MIC
Text: as §1, §3, §4, §6

[12] = tested on: Ps. aeruginosa A9843A; test: Antibiotic activity in nutrient broth (MIC); assay type: cell-based; conditions: Pseudomonas aeruginosa
Text: as §1, §3, §4, §6

[13] = tested on: S. aureus BX1633 A9606; test: Antibiotic activity in nutrient broth (MIC); assay type: cell-based; conditions: Staphylococcus aureus, derivatives adjusted for BL-S640 content, read-out: MIC
Text: as §1, §3, §4, §6

[14] = tested on: S. aureus Meth-Res A15097; test: Antibiotic activity in nutrient broth (MIC); assay type: cell-based; conditions: Staphylococcus aureus, inoculum 10^-3; Meth-Res; derivatives adjusted for BL-S640 content; read-out: MIC
Text: as §1, §3, §4, §6

[15] = tested on: S. aureus Smith A9537; test: Antibiotic activity in nutrient broth (MIC); assay type: cell-based; conditions: Staphylococcus aureus, SMITHA9537, inoculum 10^-4, derivatives adjusted for BL-S640 content, read-out: MIC
Text: as §1, §3, §4, §6

[16] = tested on: Sal. enteritidis A9531; test: Antibiotic activity in nutrient broth (MIC); assay type: cell-based; conditions: Salmonella enterica, ENTERITIDIS, inoculum 10^-4; derivatives adjusted for BL-S640 content; read-out: MIC
Text: as §1, §3, §4, §6

[17] = tested on: Ser. marcescens A20019; test: Antibiotic activity in nutrient broth (MIC); assay type: cell-based; conditions: Serratia marcescens, A20019, inoculum 10^-4; derivatives adjusted for BL-S640 content
Text: as §1, §3, §4, §6

[18] = Mouse blood levels after intramuscular administration; assay type: in vivo; conditions: mouse, blood, im, 10 mg/kg, Example 3, IM 10 mg./kg., average of 3 experiments, read-out: Blood Levels
Protocol: Mouse Blood Levels After Intramuscular Administration
of 10 mg./kg. Body Weight
The compounds were dissolved in 0.01% phosphate buffer.
Mouse Blood Levels After IM
Administration of 10 mg./kg. Body Weight
The compounds were prepared in 0.01% phosphate
The compounds were prepared in 0.01% phosphate buffer.

[19] = Paper chromatography of rat urine for antibiotically active metabolites; assay type: in vivo; conditions: IM; rat urine 0-2 and 2-4 hours
Protocol: Paper chromatograms were run on rat urine collected between 0 and 2 and between 2 and 4 hours following IM administration of BL-S1055 and 640, for the detection of antibiotically active metabolites using descending chromatography with system No. 9 (butyl acetate:n-butanol:glacial acetic acid:H2 O= 80:15:40:24).

[20] = tested on: E. coli A15119; test: Oral PD50 in mice; assay type: in vivo; conditions: oral, mice treated at 1 and 3.5 hours post-challenge
Protocol: (§8) Comparative Oral PD50 Values of
(§9) BL-S640 Derivatives in Mice
(§10) *Mice were treated at 1 and 3.5 hours post-challenge.

[21] = tested on: K. pneumoniae A9977; test: Oral PD50 in mice; assay type: in vivo; conditions: Klebsiella pneumoniae, A9977; oral; mice treated at 1 and 3.5 hours post-challenge; read-out: PD50
Protocol: as §8, §9, §10

[22] = tested on: P. mirabilis A9707; test: Oral PD50 in mice; assay type: in vivo; conditions: Proteus mirabilis, mice treated at 1 and 3.5 hours post-challenge
Protocol: as §8, §9, §10

[23] = tested on: S. pyogenes A9604; test: Oral PD50 in mice; assay type: in vivo; conditions: Streptococcus pyogenes, mice treated at 1 and 3.5 hours post-challenge
Protocol: as §8, §9, §10

[24] = tested on: P. mirabilis A9900; test: IM PD50 in mice; assay type: in vivo; conditions: Proteus mirabilis
Text: Comparative IM PD50 Values of
as §9

With `O=C(O)C1=C(CSc2cnn[nH]2)CS[C@@H]2[C@H](N3C(=O)[C@@H](c4ccc(O)cc4)NC3c3ccccc3S(=O)(=O)O)C(=O)N12` (stereo partly drawn) [BL-S1055] the MIC [1] was 0.06 µg/mL, the MIC [2] was 0.016 µg/mL and the MIC [3] was 4 µg/mL (≈ 6.34 µM). For the same molecule, the MIC [4] was 1 µg/mL (≈ 1.59 µM), the MIC [5] was 125 µg/mL (≈ 198 µM) and the MIC [6] was 0.5 µg/mL (≈ 0.793 µM). The MIC [7] was 63 µg/mL (≈ 99.9 µM), the MIC [8] was 1 µg/mL (≈ 1.59 µM) and the MIC [9] was 0.5 µg/mL (≈ 0.793 µM). The MIC [10] was 0.5 µg/mL (≈ 0.793 µM), the MIC [11] was 32 µg/mL (≈ 50.7 µM) and the MIC [12] was greater than 125 µg/mL. The MIC ([13]; BX1633A9606, inoculum 10^-2) was 2 µg/mL (≈ 3.17 µM), the MIC ([13]; BX1633A9606, inoculum 10^-3) was 0.5 µg/mL (≈ 0.793 µM) and the MIC [14] was 4 µg/mL (≈ 6.34 µM). The MIC ([15]; + 50% serum) was 2 µg/mL, the MIC ([15]; nutrient broth) was 0.13 µg/mL (≈ 0.206 µM) and the MIC [16] was 0.35 µg/mL (≈ 0.555 µM). It also gave an MIC [17] of 125 µg/mL (≈ 198 µM), a concentration at 0.25 h ([18]; 0.25 hr) of 10300 ng/mL and a concentration at 0.5 h ([18]; 0.5 hr) of 9900 ng/mL. For the same molecule, the concentration at 1 h ([18]; 1 hr) was 7600 ng/mL, the concentration at 1.5 h ([18]; 1.5 hr) was 6500 ng/mL and the “Hydrolysis to the parent compound (BL-S640)” value [19] was “complete hydrolysis”. It also gave an ED50 ([20]; Escherichia coli, A15119, po, 3.5 h, read-out: PD50) of 1.8 mg/kg, a PD50 [20] of 1.6 mg./kg./treatment and an ED50 [21] of 1.6 mg/kg. It also gave an ED50 [22] of 1 mg/kg, an ED50 [23] of 0.4 mg/kg and an ED50 [24] of 1.6 mg/kg.

Source: patent US4026888A, “Certain derivatives of particular 3-thiolated cephalosporins” (priority 1976, dated 1977)
